Earlier results as cited in paper PMC6582641 (Organic & biomolecular chemistry, 2019).

Columns and labels:
TRPC5 = conditions: read-out: IC50 towards TRPC5
TRPC4 = conditions: read-out: IC50 TRPC4

SMILES | anxiolytic and antidepressant effects (mice) | IC50 (TRPC5) [nM] | IC50 (TRPC4) [nM] | binding activity toward TRPC3 (TRPC3) | binding activity toward TRPC6 (TRPC6) | binding activity toward TRPV1 (TRPV (vanilloid) 1) | binding activity toward TRPV4 (TRPV (vanilloid) 4) | binding activity toward TRPA1 (TRPA (ankyrin) 1) | binding activity toward TRPM2 (TRPM (melastatin) 2) | binding activity toward TRPM8 (TRPM (melastatin) 8)
Cn1c(=O)n(CCCO)c(=O)c2c1nc(Oc1cccc(Cl)c1)n2Cc1ccc(Cl)cc1 [HC070, 7-(4-Chlorobenzyl)-8-(3-Chlorophenoxy)-1-(3-Hydroxypropyl)-3-Methyl-3,7-Dihydro-1H-Purine-2,6-Dione] | produces anxiolytic and antidepressant effects in mice |  |  |  |  |  |  |  |  | 
Cn1c(=O)n(CCCO)c(=O)c2c1nc(Oc1cccc(OC(F)(F)F)c1)n2Cc1ccc(Cl)cc1 [HC608, 7-(4-Chlorobenzyl)-1-(3-Hydroxypropyl)-3-Methyl-8-(3-(Trifluoromethoxy)Phenoxy)-3,7-Dihydro-1H-Purine-2,6-Dione] |  | 6.2 | 32.5 | no binding activities | no binding activities | no binding activities | no binding activities | no binding activities | no binding activities | no binding activities
